In ChEMBL document CHEMBL1135719, “Structural basis of RasGRP binding to high-affinity PKC ligands” (J Med Chem, 2002):

Legend:
[1] = target: Protein kinase C delta type (Mus musculus, UniProt P28867); experiment: Displacement of [3H]- PDBu from Protein kinase C delta C1b domain
[2] = target: T1, RAS guanyl-releasing protein 1 (Rattus norvegicus, UniProt Q9R1K8); experiment: Binding affinity against RAS guanyl releasing protein using [3H]- PDBu as the labeled ligand
T1 sequence (Q9R1K8 whole entry): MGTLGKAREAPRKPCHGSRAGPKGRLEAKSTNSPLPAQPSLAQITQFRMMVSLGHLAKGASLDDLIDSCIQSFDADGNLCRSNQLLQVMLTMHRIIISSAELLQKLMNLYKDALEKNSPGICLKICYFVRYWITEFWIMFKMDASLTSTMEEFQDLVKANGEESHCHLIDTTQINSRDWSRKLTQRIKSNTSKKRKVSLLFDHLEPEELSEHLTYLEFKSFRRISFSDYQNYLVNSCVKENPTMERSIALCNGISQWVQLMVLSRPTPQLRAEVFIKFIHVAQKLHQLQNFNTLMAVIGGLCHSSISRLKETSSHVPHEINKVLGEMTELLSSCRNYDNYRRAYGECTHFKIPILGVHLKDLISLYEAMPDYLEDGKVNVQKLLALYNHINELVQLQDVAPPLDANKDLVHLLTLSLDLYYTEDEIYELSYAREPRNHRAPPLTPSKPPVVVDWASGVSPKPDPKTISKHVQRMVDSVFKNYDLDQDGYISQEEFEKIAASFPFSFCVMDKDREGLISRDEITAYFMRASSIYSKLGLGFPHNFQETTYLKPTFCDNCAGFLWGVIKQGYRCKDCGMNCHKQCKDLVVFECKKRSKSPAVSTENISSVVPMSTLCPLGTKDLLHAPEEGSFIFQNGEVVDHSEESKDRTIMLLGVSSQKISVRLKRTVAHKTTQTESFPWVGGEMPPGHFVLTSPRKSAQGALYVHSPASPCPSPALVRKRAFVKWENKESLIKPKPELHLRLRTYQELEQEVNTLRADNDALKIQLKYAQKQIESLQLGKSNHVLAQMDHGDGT

Protein kinase C delta type, sequence (P28867 whole entry, the tested form may be a part): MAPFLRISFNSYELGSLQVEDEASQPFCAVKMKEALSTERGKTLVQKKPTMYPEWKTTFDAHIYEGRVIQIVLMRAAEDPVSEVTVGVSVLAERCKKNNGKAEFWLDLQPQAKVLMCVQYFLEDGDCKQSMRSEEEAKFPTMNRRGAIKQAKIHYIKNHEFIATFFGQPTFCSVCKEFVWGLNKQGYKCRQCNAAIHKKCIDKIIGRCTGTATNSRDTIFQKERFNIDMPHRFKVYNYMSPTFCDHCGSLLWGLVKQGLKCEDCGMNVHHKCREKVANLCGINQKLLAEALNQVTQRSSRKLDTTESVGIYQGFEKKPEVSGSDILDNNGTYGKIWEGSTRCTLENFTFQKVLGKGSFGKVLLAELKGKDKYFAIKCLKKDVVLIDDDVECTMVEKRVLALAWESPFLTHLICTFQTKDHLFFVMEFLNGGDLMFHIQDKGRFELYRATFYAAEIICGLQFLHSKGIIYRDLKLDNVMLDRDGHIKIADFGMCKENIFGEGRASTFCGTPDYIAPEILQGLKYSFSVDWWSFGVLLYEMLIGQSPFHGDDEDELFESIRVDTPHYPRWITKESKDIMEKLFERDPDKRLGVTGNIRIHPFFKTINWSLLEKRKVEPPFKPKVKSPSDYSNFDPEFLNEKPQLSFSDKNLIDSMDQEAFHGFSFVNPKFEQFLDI

## CCCCCCCCc1ccc2c3c(c[nH]c13)C[C@@H](CO)NC(=O)[C@H](C(C)C)N2C
[1]
  Ki: 0.1 nM
[2]
  Ki: 0.85 nM

## CCCCCCCCC#Cc1ccc2c(c1)C[C@@H](CO)NC(=O)[C@H](C(C)C)N2C
[1]
  Ki: 10.7 nM
[2]
  Ki: 6.15 nM

## CCCCCCCCC#Cc1ccc2c(c1OC)C[C@@H](CO)NC(=O)[C@H](C(C)C)N2C
[1]
  Ki: 35.1 nM
[2]
  Ki: 13.9 nM

## CC(C)[C@H]1C(=O)N[C@H](CO)Cc2c[nH]c3cccc(c23)N1C [INDOLACTUM]
[2]
  Ki: 2.54 nM
